The numbers were not newly measured in article PMC3501146 (ACS Chemical Biology, 2012), which cites them from elsewhere.

For the data set, the system named is Lactococcus lactis subsp. cremoris HP. The following applies: indicator strain L. lactis subsp. cremoris HP.

With “nisin (ITSISLCTPGCKTGALMGCNMKTATCHCSIHVSK; not fully specified; Lantibiotic nisin-A; UniProt P13068 24-57, looked up)”, the “MIC against L. lactis subsp. cremoris HP (nisin)” value was 0.032 µM.
